The text below walks through data of patent US20230114946A1, “MESOSCALE NANOPARTICLES FOR SELECTIVE TARGETING TO THE KIDNEY AND METHODS OF THEIR THERAPEUTIC USE” (Memorial Sloan Kettering Cancer Center, priority 2015, published 2023).

Structures are written as SMILES.

In this assay the test system is human kidney proximal tubular epithelial cell line HK-2. The assay is described as follows: In vitro nanoparticle uptake. The conditions noted are these: inhibitor of clathrin/caveolin-mediated endocytosis. The assay is classed as cell-based. The procedure:
The following cell lines were used to determine uptake of anionic and cationic nanoparticles in vitro: MCF-7 human breast adenocarcinoma (ATCC; Manassas, Va.), SK-RC-48 human clear cell renal cell carcinoma (ccRCC) (Weill Cornell Medical College; New York, N.Y.), bEND3 mouse brain endothelial (ATCC), endothelial cell line EA-926, and human kidney proximal tubular epithelial cell line HK-2. MCF-7 cells were cultured in Dulbecco's Modified Eagle Medium (DMEM) with penicillin (10,000 U/mL)/streptomycin (10,000 U/mL)/glutamine (29.2 mg/mL) (Gibco; Carlsbad, Calif.), 0.01 mg/mL human recombinant insulin (Gibco), and 10% fetal bovine serum (FBS) (Gibco); SK-RC-48 were cultured in DMEM with 1× penicillin/streptomycin/glutamine and 10% FBS; and bEND3 cells in the same plus 1% glutaMAX (Gibco). HK-2 cells were cultured in Keratinocyte Serum Free Media (Gibco). EA-926 cells were cultured in RPMI-1640 medium (Gibco) supplemented with 10% FBS. Cells were passaged approximately weekly and media changed every 2-3 days. Cells were seeded into a 6-well cell culture dish for uptake studies. […]
Cells were incubated with 100 μg/mL NPs in 1 mL of their respective complete medias for 30 minutes. […] Cells were imaged with a fluorescence microscope using Cy5 filters.

In the case of `O=C(N/N=C/c1ccc(O)c(O)c1)c1cc2ccccc2cc1O` [Dynasore], the “inhibition of MNP uptake into HK-2 cells” value was “can be inhibited”.
